pIC50: −log10 of the molar value.
Tests used:
[1] = target: CDK4/Cyclin D3 (Homo sapiens, UniProt P11802); experiment: Inhibition of recombinant N-terminal GST/His6-fusion tagged human CDK4/Cyclin D3 expressed in Sf9 insect cells using 5-FAM-IPTSPITTTYFFFKKK as substrate preincubated for 10 mins followed by substrate addition and incubated for 3 hrs in presence of ATP by caliper mobility shift analysis
[2] = test system: MDA-MB-231; experiment: Antiproliferative activity against human MDA-MB-231 cells assessed as inhibition of cell growth incubated for 48 hrs by MTT assay; type: functional, cell-based
[3] = test system: EMT6; experiment: Antiproliferative activity against mouse EMT6 cells assessed as inhibition of cell growth incubated for 48 hrs by MTT assay; type: functional, cell-based
[4] = test system: MDA-MB-468; experiment: Antiproliferative activity against human MDA-MB-468 cells assessed as inhibition of cell growth incubated for 48 hrs by MTT assay; type: functional, cell-based
[5] = target: T1, Tyrosine-protein phosphatase non-receptor type 11 (Homo sapiens, UniProt Q06124); experiment: Inhibition of SHP2 (unknown origin) using DiFMUP as substrate incubated for 60 mins followed by substrate addition for 30 mins by microplate reader method
T1 sequence (Q06124 whole entry): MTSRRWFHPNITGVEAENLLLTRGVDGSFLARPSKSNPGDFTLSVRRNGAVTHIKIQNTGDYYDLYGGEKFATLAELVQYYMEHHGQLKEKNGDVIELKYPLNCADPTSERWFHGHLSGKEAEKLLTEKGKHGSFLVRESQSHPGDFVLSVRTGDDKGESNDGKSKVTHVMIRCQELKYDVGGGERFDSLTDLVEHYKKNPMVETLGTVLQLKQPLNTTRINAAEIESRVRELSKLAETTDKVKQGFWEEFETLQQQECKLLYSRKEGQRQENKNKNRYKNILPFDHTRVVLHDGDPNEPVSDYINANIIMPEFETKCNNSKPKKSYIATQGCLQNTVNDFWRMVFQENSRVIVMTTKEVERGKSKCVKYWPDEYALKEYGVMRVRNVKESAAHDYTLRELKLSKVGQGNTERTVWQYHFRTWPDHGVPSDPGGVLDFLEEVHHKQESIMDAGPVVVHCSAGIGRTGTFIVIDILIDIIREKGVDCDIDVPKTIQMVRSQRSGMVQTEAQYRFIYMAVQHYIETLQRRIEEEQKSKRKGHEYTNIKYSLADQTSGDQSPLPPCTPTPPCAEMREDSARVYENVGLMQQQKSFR

[6] = test system: MDA-MB-231; experiment: Induction of cell cycle arrest in human MDA-MB-231 cells assessed as accumulation of cells in G2/M phase at 3 uM incubated for 48 hrs by RNase/propidium iodide staining based flow cytometry analysis (reference value: 2.7%); type: functional
[7] = test system: EMT6
[8] = test system: MDA-MB-231; experiment: Induction of apoptosis in human MDA-MB-231 cells assessed as necrotic cells at 3 uM measured after 48 hrs by Annexin V-FITC/PI staining based flow cytometric analysis (reference value: 0.58%); type: functional
[9] = test system: MDA-MB-231; experiment: Induction of cell cycle arrest in human MDA-MB-231 cells assessed as accumulation of cells in S phase at 3 uM incubated for 48 hrs in presence of abemaciclib by RNase/propidium iodide staining based flow cytometry analysis (reference value: […]); type: functional
[10] = test system: MDA-MB-231; experiment: Induction of apoptosis in human MDA-MB-231 cells assessed as late apoptotic cells at 3 uM incubated for 48 hrs in presence of abemaciclib by Annexin V-FITC/PI staining based flow cytometric analysis (reference value: 1.06%); type: functional
[11] = test system: MDA-MB-231; experiment: Induction of cell cycle arrest in human MDA-MB-231 cells assessed as accumulation of cells in S phase at 3 uM incubated for 48 hrs by RNase/propidium iodide staining based flow cytometry analysis (reference value: […]); type: functional
[12] = test system: MDA-MB-231; experiment: Induction of apoptosis in human MDA-MB-231 cells assessed as early apoptotic cells at 3 uM measured after 48 hrs by Annexin V-FITC/PI staining based flow cytometric analysis (reference value: 0.32%); type: functional
[13] = test system: MDA-MB-231
[14] = test system: MDA-MB-231; experiment: Induction of cell cycle arrest in human MDA-MB-231 cells assessed as accumulation of cells in G0/G1 phase at 3 uM incubated for 48 hrs by RNase/propidium iodide staining based flow cytometry analysis (reference value: 26.2%); type: functional
[15] = test system: EMT6; experiment: Antitumor activity against mouse EMT6 cells implanted in BALB/c mouse syngenic model assessed as tumor growth inhibition at 40 mg/kg, po qd and measured after 18 days relative to control; type: functional; details: EMT6, 432 h, time 18 day, read-out: TGI
[16] = test system: MDA-MB-231; experiment: Induction of cell cycle arrest in human MDA-MB-231 cells assessed as accumulation of cells in G2/M phase at 3 uM incubated for 48 hrs in presence of abemaciclib by RNase/propidium iodide staining based flow cytometry analysis (reference value: 2.7%); type: functional
[17] = test system: MDA-MB-231; experiment: Induction of apoptosis in human MDA-MB-231 cells assessed as viable cells at 3 uM measured after 48 hrs by Annexin V-FITC/PI staining based flow cytometric analysis (reference value: 98.04%); type: functional; details: read-out: Activity
[18] = test system: MDA-MB-231; experiment: Induction of apoptosis in human MDA-MB-231 cells assessed as late apoptotic cells at 3 uM measured after 48 hrs by Annexin V-FITC/PI staining based flow cytometric analysis (reference value: 1.06%); type: functional
[19] = test system: MDA-MB-231; experiment: Induction of apoptosis in human MDA-MB-231 cells assessed as viable cells at 3 uM incubated for 48 hrs in presence of abemaciclib by Annexin V-FITC/PI staining based flow cytometric analysis (reference value: 98.04%); type: functional; details: read-out: Activity
[20] = test system: MDA-MB-231; experiment: Induction of apoptosis in human MDA-MB-231 cells assessed as necrotic cells at 3 uM incubated for 48 hrs in presence of abemaciclib by Annexin V-FITC/PI staining based flow cytometric analysis (reference value: 0.58%); type: functional
[21] = test system: MDA-MB-231; experiment: Induction of cell cycle arrest in human MDA-MB-231 cells assessed as accumulation of cells in G0/G1 phase at 3 uM incubated for 48 hrs in presence of abemaciclib by RNase/propidium iodide staining based flow cytometry analysis (reference value: 26.2%); type: functional
[22] = test system: MDA-MB-231; experiment: Induction of apoptosis in human MDA-MB-231 cells assessed as early apoptotic cells at 3 uM incubated for 48 hrs in presence of abemaciclib by Annexin V-FITC/PI staining based flow cytometric analysis (reference value: 0.32%); type: functional
[23] = test system: MDA-MB-468
[24] = test system: EMT6; experiment: Antitumor activity in mouse EMT6 cells implanted in BALB/c syngenic mouse model assessed as tumor growth inhibition at 40 mg/kg, po qd in presence of abemaciclib measured after 18 days relative to control; type: functional; details: EMT6, 432 h, time 18 day, read-out: TGI

Sequence of CDK4/Cyclin D3 (P11802 whole entry, the tested form may be a part): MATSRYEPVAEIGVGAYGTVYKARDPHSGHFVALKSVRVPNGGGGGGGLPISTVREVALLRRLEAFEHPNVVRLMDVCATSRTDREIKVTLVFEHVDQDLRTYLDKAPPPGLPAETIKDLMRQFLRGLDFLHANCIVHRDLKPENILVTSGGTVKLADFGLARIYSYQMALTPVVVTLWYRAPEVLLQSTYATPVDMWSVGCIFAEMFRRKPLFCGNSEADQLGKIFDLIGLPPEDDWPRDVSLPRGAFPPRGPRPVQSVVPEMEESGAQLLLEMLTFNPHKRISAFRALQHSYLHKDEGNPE
Sequence of CDK4/Cyclin D3 (P30281 whole entry, further chain, the tested form may be a part): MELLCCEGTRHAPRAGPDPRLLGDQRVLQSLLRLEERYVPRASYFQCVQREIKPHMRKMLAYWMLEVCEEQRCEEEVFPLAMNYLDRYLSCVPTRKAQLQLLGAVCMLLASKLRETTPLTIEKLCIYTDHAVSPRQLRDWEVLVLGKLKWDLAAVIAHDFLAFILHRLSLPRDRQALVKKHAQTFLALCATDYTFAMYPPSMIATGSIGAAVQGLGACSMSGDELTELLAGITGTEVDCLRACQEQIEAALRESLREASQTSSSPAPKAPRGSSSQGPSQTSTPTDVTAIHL

Cc1nc2c(F)cc(-c3nc(Nc4cc(Sc5cnc(N6CCC7(CC6)CO[C@@H](C)[C@H]7N)cn5)ccn4)ncc3F)cc2n1C(C)C
pIC50 [1]: 7.79 | pIC50 ([2]; Homo sapiens, MDA-MB-231, 48 h): 5.29 | pIC50 ([3]; Mus musculus, EMT6, 48 h): 5.96 | pIC50 ([4]; Homo sapiens, MDA-MB-468, 48 h): 5.02 | pIC50 [5]: 7.33

CN(C)C(=O)c1cc2cnc(Nc3ccc(Sc4cnc(N5CCC(C)(N)CC5)cn4)c(Cl)n3)nc2n1C1CCCC1
pIC50 [1]: 7.29

Cc1nc2c(F)cc(-c3nc(Nc4ccc(Sc5cnc(N6CCC7(CC6)CO[C@@H](C)[C@H]7N)cn5)c(Cl)n4)ncc3F)cc2n1C(C)C
pIC50 [1]: 6.86

CN(C)C(=O)c1cc2cnc(Nc3ccc(Sc4cnc(N5CCC6(CC5)Cc5ccccc5[C@H]6N)cn4)c(Cl)n3)nc2n1C1CCCC1
pIC50 [1]: 6.28 | pIC50 [5]: 7.47

CN(C)C(=O)c1cc2cnc(Nc3nccc(Sc4cnc(N5CCC(C)(N)CC5)cn4)c3Cl)nc2n1C1CCCC1
pIC50 [1]: 6.35 | pIC50 [5]: 7.50

Cc1nc2c(F)cc(-c3nc(Nc4cc(Sc5cnc(N6CCC7(CC6)CO[C@@H](C)[C@H]7N)cn5)c(Cl)cn4)ncc3F)cc2n1C(C)C
pIC50 [1]: < 6.00

Cc1nc2c(F)cc(-c3nc(Nc4nccc(Sc5cnc(N6CCC7(CC6)Cc6ccccc6[C@H]7N)cn5)c4Cl)ncc3F)cc2n1C(C)C
pIC50 [1]: 7.02 | pIC50 ([2]; Homo sapiens, MDA-MB-231, 48 h): 5.35 | pIC50 ([3]; Mus musculus, EMT6, 48 h): 5.97 | pIC50 ([4]; Homo sapiens, MDA-MB-468, 48 h): 5.41 | pIC50 [5]: 8.09

Cc1nc2c(F)cc(-c3nc(Nc4ccc(Sc5cnc(N6CCC7(CC6)CO[C@@H](C)[C@H]7N)cn5)c(Cl)c4)ncc3F)cc2n1C(C)C
pIC50 [1]: 8.15 | pIC50 ([2]; Homo sapiens, MDA-MB-231, 48 h): 5.49 | pIC50 ([3]; Mus musculus, EMT6, 48 h): 5.78 | pIC50 ([4]; Homo sapiens, MDA-MB-468, 48 h): 4.99

CN(C)C(=O)c1cc2cnc(Nc3ccc(Sc4cnc(N5CCC6(CC5)Cc5ccccc5[C@H]6N)cn4)c(Cl)c3)nc2n1C1CCCC1
pIC50 [1]: < 6.00 | pIC50 [5]: 7.28

Cc1nc2c(F)cc(-c3nc(Nc4ccc(Sc5cnc(N6CCC7(CC6)Cc6ccccc6[C@H]7N)cn5)c(Cl)n4)ncc3F)cc2n1C(C)C
pIC50 [1]: 6.35 | pIC50 [5]: 6.17

Cc1nc2c(F)cc(-c3nc(Nc4cccc(Sc5cnc(N6CCC7(CC6)CO[C@@H](C)[C@H]7N)cn5)c4Cl)ncc3F)cc2n1C(C)C
pIC50 [1]: 8.17 | pIC50 ([2]; Homo sapiens, MDA-MB-231, 48 h): 5.34 | pIC50 ([3]; Mus musculus, EMT6, 48 h): 6.24 | pIC50 ([4]; Homo sapiens, MDA-MB-468, 48 h): 5.04 | pIC50 [5]: 7.78

CN(C)C(=O)c1cc2cnc(Nc3ccc(Sc4cnc(N5CCC(C)(N)CC5)cn4)cn3)nc2n1C1CCCC1
pIC50 [1]: 8.09

CN(C)C(=O)c1cc2cnc(Nc3nccc(Sc4cnc(N5CCC6(CC5)Cc5ccccc5[C@H]6N)cn4)c3Cl)nc2n1C1CCCC1
pIC50 [1]: < 6.00 | pIC50 [5]: 8.49

Cc1nc2c(F)cc(-c3nc(Nc4cnc(Sc5cnc(N6CCC7(CC6)CO[C@@H](C)[C@H]7N)cn5)c(Cl)c4)ncc3F)cc2n1C(C)C
pIC50 [1]: 8.04 | pIC50 [5]: 6.69

C[C@@H]1OCC2(CCN(c3cnc(Sc4ccnc(N)c4Cl)c(N)n3)CC2)[C@@H]1N [BATOPROTAFIB]
Activity [6]: 2.6% | pIC50 [7]: 5.60 | Activity [8]: 1.07% | Activity [9]: 53.2% | Activity [10]: 12.42% | Activity [11]: 56.7% | Activity [12]: 7.32% | pIC50 [13]: 4.89 | Activity [14]: 40.7% | inhibition in vivo at 40 mg/kg [15]: 60% | Activity [16]: 2% | viability at 3 µM [17]: 82.5% | Activity [18]: 9.13% | pIC50 ([2]; mda-mb-231): < 4.70 | pIC50 ([3]; emt6): 5.15 | pIC50 ([4]; mda-mb-468): < 4.70 | viability at 3 µM [19]: 78.5% | Activity [20]: 0.95% | Activity [21]: 44.8% | Activity [22]: 8.17% | pIC50 [23]: 5.51 | inhibition in vivo at 40 mg/kg [24]: 74%

CN(C)C(=O)c1cc2cnc(Sc3cnc(N4CCC(C)(N)CC4)cn3)nc2n1C1CCCC1
pIC50 [1]: < 6.00 | pIC50 [5]: < 6.00

Cc1nc2c(F)cc(-c3nc(Nc4ccc(Cl)c(Sc5cnc(N6CCC7(CC6)CO[C@@H](C)[C@H]7N)cn5)n4)ncc3F)cc2n1C(C)C
pIC50 [1]: 6.67 | pIC50 [5]: 6.21

CCN1CCN(Cc2ccc(Nc3ncc(F)c(-c4cc(F)c5nc(C)n(C(C)C)c5c4)n3)nc2)CC1 [ABEMACICLIB]
Activity [6]: 2.7% | Activity [8]: 1.42% | Activity [11]: 60.2% | Activity [12]: 5.86% | Activity [14]: 37.1% | inhibition in vivo at 40 mg/kg [15]: 35% | viability at 3 µM [17]: 86% | Activity [18]: 6.73% | pIC50 ([2]; Homo sapiens, MDA-MB-231, 48 h): < 4.70 | pIC50 ([3]; Mus musculus, EMT6, 48 h): 5.38 | pIC50 ([4]; Homo sapiens, MDA-MB-468, 48 h): < 4.70

Cc1nc2c(F)cc(-c3nc(Nc4cc(Cl)c(Sc5cnc(N6CCC7(CC6)CO[C@@H](C)[C@H]7N)cn5)cn4)ncc3F)cc2n1C(C)C
pIC50 [1]: 8.06
